Source: patent publication US20100168038A1, “USE OF COMPOUNDS IN COMBINATION WITH GAMMA-IRRADIATION FOR THE TREATMENT OF CANCER” (priority 2006, published 2010)
“And” between values parts separate entries of the source, which are not always exact repeats. Equal entries are not always repeated. Residues, ends and D or L forms follow the SMILES beside them.

Tests used:
[1] = biological target: T1, TPP II (Mus musculus, UniProt Q64514); experiment: TPP II peptidase assay: cleavage of fluorogenic substrate AAF-AMC by enriched TPP II; type: biochemical; conditions: for cleavage of AAF-AMC in presence of compound, mean: mean of 3 readings; for cleavage of AAF-AMC in presence of compound: single reading
T1 construct: 1 ug of high molecular weight protein was used as enzyme in peptidase assays; endogenous in cells
T1 sequence (Q64514 2-1262 limits assumed): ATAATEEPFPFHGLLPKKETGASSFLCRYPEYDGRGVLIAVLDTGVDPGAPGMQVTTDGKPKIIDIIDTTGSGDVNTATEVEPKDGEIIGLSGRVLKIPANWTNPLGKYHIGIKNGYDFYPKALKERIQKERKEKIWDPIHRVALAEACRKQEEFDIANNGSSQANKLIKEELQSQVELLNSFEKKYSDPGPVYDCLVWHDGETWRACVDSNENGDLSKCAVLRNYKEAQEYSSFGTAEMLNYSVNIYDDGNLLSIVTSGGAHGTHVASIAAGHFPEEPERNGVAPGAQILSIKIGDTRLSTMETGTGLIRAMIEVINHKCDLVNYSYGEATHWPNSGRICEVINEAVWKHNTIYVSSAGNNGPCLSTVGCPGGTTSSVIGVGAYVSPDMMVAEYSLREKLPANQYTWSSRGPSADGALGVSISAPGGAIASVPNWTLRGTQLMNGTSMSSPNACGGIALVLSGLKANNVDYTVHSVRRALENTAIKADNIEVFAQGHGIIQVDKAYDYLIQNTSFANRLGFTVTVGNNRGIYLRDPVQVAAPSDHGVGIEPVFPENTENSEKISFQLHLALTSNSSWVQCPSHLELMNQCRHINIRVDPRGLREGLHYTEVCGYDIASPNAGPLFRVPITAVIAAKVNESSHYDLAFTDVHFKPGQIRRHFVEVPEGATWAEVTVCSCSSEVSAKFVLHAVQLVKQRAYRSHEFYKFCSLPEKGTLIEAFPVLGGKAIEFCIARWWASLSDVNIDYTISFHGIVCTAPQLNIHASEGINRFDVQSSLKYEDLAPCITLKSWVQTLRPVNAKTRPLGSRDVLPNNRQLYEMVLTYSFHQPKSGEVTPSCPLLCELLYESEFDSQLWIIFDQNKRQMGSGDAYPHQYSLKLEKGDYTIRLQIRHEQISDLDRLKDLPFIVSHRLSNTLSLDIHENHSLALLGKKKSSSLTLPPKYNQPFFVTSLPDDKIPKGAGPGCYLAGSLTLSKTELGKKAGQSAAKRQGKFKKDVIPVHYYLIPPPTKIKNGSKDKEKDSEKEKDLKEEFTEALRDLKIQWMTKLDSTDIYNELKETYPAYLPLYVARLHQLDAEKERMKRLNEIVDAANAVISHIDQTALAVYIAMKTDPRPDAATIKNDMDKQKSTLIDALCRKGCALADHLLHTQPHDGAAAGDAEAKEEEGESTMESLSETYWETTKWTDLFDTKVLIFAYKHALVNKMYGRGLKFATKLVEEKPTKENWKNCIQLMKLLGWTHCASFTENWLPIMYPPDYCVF
Description: In one non-limiting example of purification of TPP II, 100×10^6 cells (such as EL-4 cells) were sedimented and lysed by vortexing in glass beads and homogenisation buffer (50 mM Tris Base pH 7.5, 250 mM Sucrose, 5 mM MgCl2, 1 mM DTT). Cellular lysates were subjected to differential centrifugation; first the cellular homogenate was centrifuged at 14,000 rpm for 15 min, and then the supernatant was transferred to ultra-centrifugation tubes. Next the sample was ultra-centrifugated at 100,000×g for 1 hour, and the supernatant (denoted as cytosol in most biochemical literature) was subjected to 100,000×g centrifugation for 5 hours, which sedimented high molecular weight cytosolic proteins/protein complexes. The resulting pellet dissolved in 50 mM Tris Base pH 7.5, 30% Glycerol, 5 mM MgCl2, and 1 mM DTT, and 1 ug of high molecular weight protein was used as enzyme in peptidase assays.
It is possible to test the activity of TPP II using for example the substrate AAF-AMC (Sigma, St. Louis, Mo.). This may for example be used at 100 uM concentration in 100 ul of test buffer composed of 50 mM Tri Base pH 7.5, 5 mM MgCl2 and 1 mM DTT. It is possible to stop reactions using dilution with 900 ul 1% SDS solution. Cleavage activity may be measured for example by emission at 460 nm in a LS50B Luminescence Spectrometer (Perkin Elmer, Boston, Mass.).
Protein Purification, Peptidase Assays and Analysis of DNA Fragmentation. 100×10^6 cells were sedimented and lysed by vortexing in glass beads and homogenisation buffer (50 mM Tris Base pH 7.5, 250 mM Sucrose, 5 mM MgCl2, 1 mM DTT). Cellular lysates were submitted to differential centrifugation where a supernatant from a 1 hour centrifugation at 100,000×g (cytosol) was submitted to 100,000×g centrifugation for 3-5 hours, which sedimented high molecular weight cytosolic proteins/protein complexes. The resulting pellet dissolved in 50 mM Tris Base pH 7.5, 30% Glycerol, 5 mM MgCl2, and 1 mM DTT, and 1 micro-g of high molecular weight protein was used as enzyme in peptidase assays or in Western blotting for TPP II expression. To test the activity of TPP II we used the substrate AAF-AMC (Sigma, St. Louis, Mo.), at 100 micro-M concentration in 100 micro-l of test buffer composed of 50 mM Tri Base pH 7.5, 5 mM MgCl2 and 1 mM DTT. Cleavage activity was measured by emission at 460 nm in a LS50B Luminescence Spectrometer (Perkin Elmer, Boston, Mass.). For analysis of DNA fragmentation cells were seeded in 12-well plates at 10^6 cells/ml and exposed to 25 micro-M etoposide, a DNA topoisomerase II inhibitor commonly used as an apoptosis-inducing agent, to starvation (50% PBS). Cells were seeded at 10^6 cells/ml in 12-well plates and incubated for the indicated times, usually 18-24 hours. DNA from EL-4 control and adapted cells was purified by standard chloroform extraction, and 2.5 micro-g of DNA was loaded on 1.8% agarose gel for detection of DNA from apoptotic cells.
TPP II protein was enriched, and then a TPP II-preferred fluorogenic substrate AAF-AMC was used. 100×10^6 cells were sedimented and lysed by vortexing in glass beads and homogenisation buffer (50 mM Tris Base pH 7.5, 250 mM Sucrose, 5 mM MgCl2, 1 mM DTT). Cellular lysates were subjected to differential centrifugation; first the cellular homogenate was centrifuged at 14,000 rpm for 15 min, and then the supernatant was transferred to ultra-centrifugation tubes. Next the sample was ultra-centrifugated at 100,000×g for 1 hour, and the supernatant (denoted as cytosol in most biochemical literature) was subjected to 100,000×g centrifugation for 5 hours, which sedimented high molecular weight cytosolic proteins/protein complexes.

[2] = Stability in serum; type: in vitro ADME

SMILES: CC(C)C[C@H](NC(=O)CNC(=O)OCc1ccccc1)C(=O)N[C@@H](C)C(=O)O [Z-GLA-OH, Z-Gly-Leu-Ala-OH] (HELM PEPTIDE1{[O=C(OCc1ccccc1)[*:2]].G.L.A}$$$$V2.0)
- TPPII inhibition, in words [1]: efficiently inhibited TPPII
- cleavage of AAF-AMC in presence of compound, mean ([1]; compound 1 nM): 32.85 fluorometric units
- cleavage of AAF-AMC in presence of compound ([1]; compound 1 nM): 32.54 fluorometric units and 32.61 fluorometric units and 33.41 fluorometric units
- cleavage of AAF-AMC in presence of compound, mean ([1]; compound 10 nM): 22.70 fluorometric units
- cleavage of AAF-AMC in presence of compound ([1]; compound 10 nM): 21.74 fluorometric units and 21.93 fluorometric units and 24.44 fluorometric units
- cleavage of AAF-AMC in presence of compound, mean ([1]; compound 100 nM): 14.35 fluorometric units
- cleavage of AAF-AMC in presence of compound ([1]; compound 100 nM): 14.43 fluorometric units and 14.26 fluorometric units and 14.37 fluorometric units
- cleavage of AAF-AMC in presence of compound, mean ([1]; compound 1 uM): 11.60 fluorometric units
- cleavage of AAF-AMC in presence of compound ([1]; compound 1 uM): 11.43 fluorometric units and 11.9 fluorometric units and 11.46 fluorometric units
- cleavage of AAF-AMC in presence of compound, mean ([1]; compound 10 uM): 7.21 fluorometric units
- cleavage of AAF-AMC in presence of compound ([1]; compound 10 uM): 6.47 fluorometric units and 7.66 fluorometric units and 7.49 fluorometric units
- cleavage of AAF-AMC in presence of compound, mean ([1]; compound 100 uM): 1.38 fluorometric units
- cleavage of AAF-AMC in presence of compound ([1]; compound 100 uM): 1.14 fluorometric units and 1.44 fluorometric units and 1.55 fluorometric units
- Ki ([1]; partially purified TPPII enzyme, fluorimetry, read-out: Ki50, inhibited TPPII cleavage of the substrate AAF-AMC): ~10 nM
- stability in serum [2]: relatively stable in serum
